Reference: publication PMC10349804, “Natural resveratrol analogs differentially target endometriotic cells into apoptosis pathways” (Scientific Reports, 2023)
Where “and” joins values, the source holds several entries; their conditions need not be identical. Equal entries are not always repeated.

Legend:
[1] = test system: endometriotic epithelial 12Z cells; experiment: MTT reduction assay, cell viability; type: cell-based, human; details: for IC10 / IC50: 12Z cells, 48-h incubation; for IC50: Homo sapiens; for cytotoxicity in 12Z versus T HESC cells, comparing IC50 values: 48 h
Description: (§1) The effect of resveratrol and its natural analogs on the viability of endometriotic epithelial 12Z cells and endometrial stromal T HESC cells was assessed using the MTT assay. Table 1 presents the IC10 and IC50 values (the inhibitor concentration required for 10% and 50% reduction in […]) obtained after 48-h incubation with the tested compounds. […] The cytotoxicity of resveratrol and pterostilbene to 12Z cells was not markedly different. T HESC and 12Z cells varied in susceptibility to the treatment with stilbenes tested, as evidenced by the cytotoxic doses shown in Table 1. […] Similarly, resveratrol evoked much weaker cytotoxic effects in T HESC cells than in 12Z cells. Polydatin at concentrations up to 400 µM was not cytotoxic to the T HESC cells, while at a dose of 86.76 µM, it induced the first cytotoxic symptoms in 12Z cells. […] The increased susceptibility of endometriotic 12Z cells than endometrial T HESC cells to resveratrol and its natural analogs was consistent in both assays (Fig. 1).
(§2) The immortalized human endometriotic epithelial cells (12Z), derived from peritoneal endometriosis lesions, were obtained from Applied Biological Materials Inc. (Richmond, Canada). The 12Z cells were cultured in Dulbecco's Modified Eagle Medium/Nutrient Mixture F-12 (DMEM/F12), containing 10% fetal bovine serum (FBS) and 50 mg/L gentamycin. American Type Culture Collection (ATCC, Manassas, VA, USA) was the source for human endometrial stromal cells immortalized by telomerase (T HESC, CRL-4003). The cells were maintained routinely in phenol red-free DMEM/F12 supplemented with 10% charcoal/dextran treated FBS, 1% ITS + 1, and 50 mg/L gentamycin, at 37 °C and 5% CO2. Both cell lines were negative for mycoplasma contamination; mycoplasma-free cells were confirmed repeatedly during the study.
(§3) Cells were seeded at a density of 0.15 × 10^5 cells/cm^2 in 6-well plates. The 24-h cell cultures were treated with resveratrol and its derivatives for 48 h under standard culture conditions. Camptothecin was applied as a reference apoptosis inducer; its final concentrations were set to 5 µM and 50 µM.
(§4) Cell viability and metabolic activity were determined using the MTT colorimetric assay, according to the protocol described in previous studies. Based on the obtained data, the dose–response curves were plotted, and inhibitory concentrations (IC) were calculated. In addition, cell proliferation was measured using the alamarBlue™ Cell Viability Reagent (Invitrogen, Carlsbad, CA, USA) according to the manufacturer's protocol. Fluorescence was measured using a Tecan M200 Infinite microplate reader (Tecan Group Ltd., Männedorf, Switzerland).

[2] = test system: endometrial stromal T HESC cells; experiment: MTT reduction assay, cell viability; type: cell-based, human; details: for IC50: Homo sapiens; for IC50 / IC10: T HESC cells, 48-h incubation, MTT
Description: as §1, §2, §3, §4

caspases-3/7 = experiment: APO-One Homogenous Caspase-3/7 Assay in 12Z cells; type: cell-based, human
Description: Resveratrol evoked a dose-dependent caspase-3/7 activation in 12Z cells (F = 2467.29, p < 0.0001). […] It was consistent with the results of CASP3 gene expression activation. […] There was a 2.8-fold activation of caspase 3/7 enzymes following treatment with piceatannol at a 200 μM dose, which complies with the CASP3 mRNA expression level.
To quantitate the proteolytic activity of caspase 3 and 7, we performed an assay based on the proteolytic cleavage of the C-terminal side of the aspartate residue in the DEVD peptide substrate by caspase 3/7 and into the fluorescent rhodamine 110. Caspase 3/7 activity was determined using the APO-One Homogenous Caspase-3/7 Assay (Promega Corporation, Wisconsin, USA) following the manufacturer's instructions. The obtained data were normalized to cellular protein content. The total protein was quantified by BCA assay (Pierce® BCA Protein Assay Kit, Thermo Scientific Inc., USA) according to the manufacturer's protocol.

endometriotic 12Z cells [3] = experiment: TUNEL assay of DNA fragmentation, flow cytometry; type: cell-based, human; details: 48 h
Description: Cell death via apoptosis in 12Z cells after exposure to resveratrol and its natural derivatives was determined by detecting DNA fragmentation (Fig. 5). DNA degradation was correlated in a dose-dependent manner. […] Tunel-positive cell population in the 12Z cell culture treated with camptothecin was estimated at 32.5%, compared to 0.6% in the vehicle-treated control culture.
The detection of DNA fragmentation in 12Z cells was performed using the terminal deoxynucleotidyl-transferase-mediated dUTP nick end labeling (TUNEL) assay with In Situ Cell Death Detection Kit (Roche Diagnostics, Indianapolis, IN, USA). The test detects DNA breakage that is identified by terminal deoxynucleotidyl transferase. After treatment, the harvested cells were fixed in 4% paraformaldehyde and permeabilized in 0.1% Triton X-100. After washing in PBS, cells were subjected to TUNEL labeling with fluorescein-labeled dUTP and terminal deoxynucleotidyl transferase mixture. Cells were analyzed by flow cytometry using an Amnis™ FlowSight™ flow cytometer.

endometriotic 12Z cells [4] = experiment: Cell cycle analysis by PI staining, flow cytometry; type: cell-based, human; details: 100 µM, 48 h
Description: To investigate whether resveratrol and its analogs have interfered with cell cycle progression in endometriotic 12Z cells, we analyzed the cell cycle distribution by flow cytometry. […] The largest subpopulation of apoptotic cells was found in the cell cultures treated with resveratrol and pterostilbene at the concentration of 100 µM (31.2 ± 8.0% and 33.1 ± 9.7%, respectively) and piceatannol at a concentration of 200 µM (45.1 ± 5. 6%).
Cell cycle progression was analyzed by flow cytometry using PI staining. After treatment, 12Z cells were collected, washed with PBS, and fixed in 70% ethanol. The cells were then washed, resuspended in PBS, and stained with 50 μg/ml PI in the presence of 100 μg/ml RNase A. Cell cycle distribution was analyzed using a FACSCanto flow cytometer (Becton Dickinson, San Jose, CA, USA). Data analysis was performed with the FACS Diva software (Becton Dickinson).

[5] = test system: endometrial stromal cells derived from patients with endometriosis; set-up: method as in PMID 33083332, PMID 26782781; details: cited from earlier work
BAX gene = experiment: Real-time PCR, BAX mRNA expression in 12Z cells; type: cell-based, human; details: fold of control, normalized against β-actin
Text: The effect of resveratrol and its natural analogs on the expression of pro- or antiapoptotic regulators, was examined by real-time PCR. […] BAX overexpression was also documented in 12Z cells exposed to resveratrol.
(§5) Figure 7 Effect of resveratrol and its analogs on the mRNA expression of BCL2, BCL2L1, BAX, FAS, CASP3, CASP8, and CASP9 genes in endometriotic 12Z cells, assessed by real-time PCR. Data were normalized against β-actin and expressed as relative mRNA expression (-fold of control). The values represent the means (n = 3) ± SD. Significant differences *p < 0.05; **p < 0.01; ***p < 0.001 compared to vehicle control.
(§6) Gene expression analysis was carried out according to the previously described protocol. TRI reagent was applied for total RNA isolation, synthesis cDNA Transcriptor First-Strand kit (Roche Diagnostics GmbH, Mannheim, Germany) for first-strand cDNA synthesis, and SYBR® Select Master Mix (Life Technologies, Carlsbad, CA, USA) for real-time PCR. The levels of transcripts were normalized using β-actin as an internal control, which was previously applied in 12Z cells. Relative mRNA expression was shown as fold change calculated using the 2^−ΔΔCt method compared with control cells.

CASP3 gene = experiment: Real-time PCR, caspase-3 mRNA expression in 12Z cells; type: cell-based, human; details: concentration not given
Text: as §5
We analyzed the activation of caspases at the molecular and cellular levels. […] Caspase 3 expression in pterostilbene-induced apoptosis in endometriotic cells was much weaker, even though this compound generated the most significant number of DNA strand breaks. […] It has now been recognized that in response to apoptotic stimuli, mitochondria can also release caspase-independent cell death effectors such as apoptosis-inducing factor (AIF) and endonuclease G. Following release and translocation to the nucleus, AIF becomes an active executioner of the cell death by the initiation of large-scale DNA fragmentation^37. It is essential to realize that apoptosis evolved complex death pathways, which overlap with each other. […]
Gene expression analysis was carried out according to the previously described protocol. […] Relative mRNA expression was shown as fold change calculated using the 2^−ΔΔCt method compared with control cells.

[6] = test system: endometrial stromal St-T1b cells; set-up: method as in PMID 35361545; details: 100 µM, 48-h treatment; cited from earlier work
epithelial 12Z cells = test system: epithelial 12Z cells; set-up: method as in PMID 35361545; details: 100 µM, 48-h treatment; cited from earlier work
[7] = test system: BAX, FAS, CASP3, CASP8, and CASP9 genes; experiment: Real-time PCR, proapoptotic gene panel in 12Z cells; type: cell-based, human
Text: as §5
The FAS overexpression depended on the concentration of stilbenes, reaching a relative expression up to tenfold higher in treated endometriotic cells. The role of proteases in resveratrol-, pterostilbene-, and piceatannol-induced apoptosis was also indicated by the upregulation of well-known initiator caspases of the mitochondrial and death receptor apoptotic pathways such as caspases 8, 9 and executioner caspase 3 (Fig. 7).
as §6, with “The levels of transcripts were normalized using β-actin as an internal control, which was previously applied in 12Z cells.” left out

endometriotic 12Z cells [8] = experiment: Annexin V/PI double staining, flow cytometry; type: cell-based, human; details: 200 µM, 48 h
Description: After treating endometriotic 12Z cells with stilbenes, the phosphatidylserine externalization was measured by Annexin V and PI double staining (Fig. 4A). Examples of the single-cell images from sub-populations: live cells (Annexin V/PI-double negative), early apoptotic cells (Annexin V-positive/PI-negative), late apoptotic cells (Annexin V/PI-double positive), necrotic cells (Annexin V-negative/PI-positive) are presented in Fig. 4B.
Figure 4 Flow cytometry analysis of endometriotic 12Z cells stained with PI and FITC-Annexin V. Cells were treated with resveratrol, pterostilbene, piceatannol, polydatin and their vehicle (0.5% ethanol) for 48 h. Camptothecin was used as a positive control. (A) Representative images of each distinct cellular subset. n = 4; scale bars = 20 μm. (B) Representative flow cytometry dot plots. (C) Summary of FITC-Annexin V and PI stained populations in 12Z cell cultures. […] The results are presented as means ± SD. *p < 0.05, **p < 0.01, ***p < 0.001 compared to vehicle control.
Apoptosis was determined by Annexin V and propidium iodide (PI) double staining with the FITC Annexin V Apoptosis Detection kit (BD Pharmingen, Heidelberg, Germany) by flow cytometry according to the manufacturer's instructions. […] The cells were analyzed with an Amnis™ FlowSight™ flow cytometer (Luminex Corporation, TX, USA). […]

| SMILES | IC10 [1] | IC50 [1] [µM] | IC50 [2] [µM] | IC10 [2] | caspase-3/7 activity increase (caspases-3/7; 200 µM) | DNA strand breaks (TUNEL-positive cells) (endometriotic 12Z cells [3]; 100 µM) | subpopulation of apoptotic cells (lower DNA content, subG1) (endometriotic 12Z cells [4]) [%] | cytotoxicity in 12Z versus T HESC cells, comparing IC50 values [1] | caspase-3/7 activity increase (caspases-3/7; 100 µM) | DNA strand breaks (TUNEL-positive cells) (endometriotic 12Z cells [3]; concentration not given) [%] | also measured |
| --- | --- | --- | --- | --- | --- | --- | --- | --- | --- | --- | --- |
| Oc1cc(O)cc(C=Cc2ccc(O)c(O)c2)c1 [Piceatannol, 3,3′,4,5′-tetrahydroxystilbene] | 167.50 ± 11.36 µM | 224 ± 6.47 | 364 ± 17 | 222.68 ± 14.49 ^# µM | 2.8 fold | 49.6% and ~50% | – | – | – | – | – |
| Oc1ccc(/C=C/c2cc(O)cc(O)c2)cc1 [Resveratrol] | 8.99 ± 4.29 µM | 49.3 ± 11.4 | 251 ± 1.58 | 160.35 ± 7.05 µM | – | 42.8% | 31.2 ± 8.0 | fivefold higher | 10.3 fold | – | endometriotic stromal cell viability (reduced to) ([5]; 200 μM): approximately 50%; influence on viability of endometrial stromal cells ([5]; concentrations up to 100 μM, 48-h treatment): did not influence the viability; BAX mRNA expression increase (BAX gene; 50 µM): approximately sevenfold; caspase-3 mRNA expression upregulation (CASP3 gene): 7.3 fold; reduction of cell viability [6]: 49.2%; reduction of cell viability (epithelial 12Z cells): 45.4% |
| CC[C@@]1(O)C(=O)OCc2c1cc1n(c2=O)Cc2cc3ccccc3nc2-1 [camptothecin, reference compound] | – | – | – | – | – | – | – | – | – | 32.5 | – |
| OC[C@H]1O[C@@H](Oc2cc(O)cc(/C=C/c3ccc(O)cc3)c2)[C@H](O)[C@@H](O)[C@@H]1O [Polydatin, 3,4′,5-trihydroxystilbene-3-β-D-glucoside] | 86.76 µM and 86.76 ± 10.01 µM | 243 ± 22.5 | > 400 | > 400 µM | – | – | – | – | – | 1.08 | mRNA transcripts of BAX, FAS, CASP3, CASP8, and CASP9 genes [7]: did not significantly increase; cytotoxicity to T HESC cells ([2]; concentrations up to 400 µM): not cytotoxic; caspase 3/7 activity change (caspases-3/7; concentration not given): not significantly changed; apoptosis stage induced (Annexin V/PI) (endometriotic 12Z cells [8]; 50 µM, 100 µM): increased population of early apoptosis cells without induction of late apoptosis |
| COc1cc(C=Cc2ccc(O)cc2)cc(OC)c1 [Pterostilbene, 3,5-dimethoxy-4′-hydroxystilbene] | 29.34 ± 4.46 µM | 73.9 ± 6 | 145 ± 7.71 | 113.79 ± 5.11 ^## µM | inhibited their activity | – | 33.1 ± 9.7 | almost twofold lower | modestly activated | – | BAX mRNA expression increase (BAX gene; 100 µM): approximately 16 fold; DNA strand breaks (TUNEL-positive cells) (endometriotic 12Z cells [3]; 200 µM): 62.6%; treated cells classified as apoptotic cells (endometriotic 12Z cells [8]): approximately 94% |
